Columns and labels:
Settings in all cases: Compound concentration 1.0 uM
[1] = biological target: Mitogen-activated protein kinase 14 (Homo sapiens) (UniProt Q16539)
[2] = biological target: T1, Phosphatidylinositol 3-kinase C2 domain-containing subunit gamma (Homo sapiens) (UniProt O75747)
T1 sequence (whole entry): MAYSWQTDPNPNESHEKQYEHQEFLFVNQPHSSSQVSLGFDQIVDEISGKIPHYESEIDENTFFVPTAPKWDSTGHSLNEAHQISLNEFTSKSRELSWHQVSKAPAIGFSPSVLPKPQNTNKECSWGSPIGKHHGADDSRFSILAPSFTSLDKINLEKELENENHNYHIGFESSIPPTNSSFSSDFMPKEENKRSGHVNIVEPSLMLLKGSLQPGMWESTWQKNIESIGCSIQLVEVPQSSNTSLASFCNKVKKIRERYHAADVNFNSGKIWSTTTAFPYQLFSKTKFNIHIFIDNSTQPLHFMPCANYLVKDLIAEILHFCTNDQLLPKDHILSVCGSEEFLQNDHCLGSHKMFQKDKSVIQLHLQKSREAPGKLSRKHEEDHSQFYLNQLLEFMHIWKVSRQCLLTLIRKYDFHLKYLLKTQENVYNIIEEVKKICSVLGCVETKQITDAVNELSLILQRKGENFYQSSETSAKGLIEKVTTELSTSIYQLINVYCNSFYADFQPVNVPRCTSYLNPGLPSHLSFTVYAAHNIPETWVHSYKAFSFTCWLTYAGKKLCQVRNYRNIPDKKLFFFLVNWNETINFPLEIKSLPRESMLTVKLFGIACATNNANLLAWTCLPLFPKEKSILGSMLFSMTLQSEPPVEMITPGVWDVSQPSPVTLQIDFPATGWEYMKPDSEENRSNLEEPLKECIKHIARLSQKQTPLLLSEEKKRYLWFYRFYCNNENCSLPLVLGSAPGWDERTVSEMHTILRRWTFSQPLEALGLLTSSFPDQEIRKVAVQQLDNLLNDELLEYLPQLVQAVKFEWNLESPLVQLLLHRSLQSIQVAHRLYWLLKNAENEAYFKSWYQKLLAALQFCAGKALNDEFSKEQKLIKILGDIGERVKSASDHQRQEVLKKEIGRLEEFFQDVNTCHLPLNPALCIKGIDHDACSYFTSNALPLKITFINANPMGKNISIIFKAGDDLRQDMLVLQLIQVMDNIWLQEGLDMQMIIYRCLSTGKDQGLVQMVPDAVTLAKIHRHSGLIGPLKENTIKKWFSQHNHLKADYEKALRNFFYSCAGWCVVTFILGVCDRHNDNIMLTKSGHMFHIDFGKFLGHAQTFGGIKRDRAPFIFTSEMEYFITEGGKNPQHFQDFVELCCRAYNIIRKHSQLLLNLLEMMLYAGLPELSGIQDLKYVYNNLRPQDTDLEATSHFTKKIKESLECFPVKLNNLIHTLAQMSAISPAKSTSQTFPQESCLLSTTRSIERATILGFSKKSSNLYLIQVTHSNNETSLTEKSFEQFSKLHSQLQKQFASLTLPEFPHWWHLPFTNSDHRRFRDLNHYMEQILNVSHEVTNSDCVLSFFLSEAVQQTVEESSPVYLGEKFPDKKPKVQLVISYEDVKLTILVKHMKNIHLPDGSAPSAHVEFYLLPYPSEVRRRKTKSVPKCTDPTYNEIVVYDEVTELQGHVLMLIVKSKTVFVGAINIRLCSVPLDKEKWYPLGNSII

[3] = biological target: Protein-tyrosine kinase 6 (Homo sapiens) (UniProt Q13882)
Protein-tyrosine kinase 6 (Homo sapiens), sequence (Q13882 whole entry, looked up): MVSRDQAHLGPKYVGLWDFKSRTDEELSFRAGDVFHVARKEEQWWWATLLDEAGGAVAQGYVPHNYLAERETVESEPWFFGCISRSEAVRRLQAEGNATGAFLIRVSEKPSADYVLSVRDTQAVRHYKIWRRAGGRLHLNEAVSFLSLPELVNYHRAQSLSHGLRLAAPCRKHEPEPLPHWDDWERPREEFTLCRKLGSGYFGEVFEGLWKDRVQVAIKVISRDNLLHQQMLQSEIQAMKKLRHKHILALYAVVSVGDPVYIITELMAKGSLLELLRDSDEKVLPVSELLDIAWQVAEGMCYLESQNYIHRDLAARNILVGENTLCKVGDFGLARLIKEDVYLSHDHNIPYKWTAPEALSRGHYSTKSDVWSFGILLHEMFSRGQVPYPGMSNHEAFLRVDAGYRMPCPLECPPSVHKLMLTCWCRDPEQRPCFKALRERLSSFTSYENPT

[4] = biological target: Insulin receptor (Homo sapiens) (UniProt P06213)
Insulin receptor (Homo sapiens), sequence (P06213 28-758 limits assumed): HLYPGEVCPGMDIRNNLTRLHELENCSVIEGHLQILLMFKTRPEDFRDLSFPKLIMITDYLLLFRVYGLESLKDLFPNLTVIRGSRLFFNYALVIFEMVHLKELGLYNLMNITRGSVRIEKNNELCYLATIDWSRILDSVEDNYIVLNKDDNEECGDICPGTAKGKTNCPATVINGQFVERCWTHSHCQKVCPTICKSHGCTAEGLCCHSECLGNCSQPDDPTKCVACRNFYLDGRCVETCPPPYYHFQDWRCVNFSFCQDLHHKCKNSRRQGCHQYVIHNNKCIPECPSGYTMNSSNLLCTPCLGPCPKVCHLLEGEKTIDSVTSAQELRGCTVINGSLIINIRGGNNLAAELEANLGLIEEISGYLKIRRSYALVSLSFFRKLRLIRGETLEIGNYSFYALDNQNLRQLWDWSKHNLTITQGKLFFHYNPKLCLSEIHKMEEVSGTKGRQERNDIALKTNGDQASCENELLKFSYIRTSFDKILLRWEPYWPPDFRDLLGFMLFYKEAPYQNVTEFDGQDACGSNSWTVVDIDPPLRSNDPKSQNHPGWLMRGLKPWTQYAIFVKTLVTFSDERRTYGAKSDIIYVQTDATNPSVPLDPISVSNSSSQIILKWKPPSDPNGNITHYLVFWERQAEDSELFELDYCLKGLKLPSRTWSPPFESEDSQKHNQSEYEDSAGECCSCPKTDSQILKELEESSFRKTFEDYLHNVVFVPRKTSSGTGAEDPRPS
Insulin receptor (Homo sapiens), sequence (P06213 763-1382 limits assumed): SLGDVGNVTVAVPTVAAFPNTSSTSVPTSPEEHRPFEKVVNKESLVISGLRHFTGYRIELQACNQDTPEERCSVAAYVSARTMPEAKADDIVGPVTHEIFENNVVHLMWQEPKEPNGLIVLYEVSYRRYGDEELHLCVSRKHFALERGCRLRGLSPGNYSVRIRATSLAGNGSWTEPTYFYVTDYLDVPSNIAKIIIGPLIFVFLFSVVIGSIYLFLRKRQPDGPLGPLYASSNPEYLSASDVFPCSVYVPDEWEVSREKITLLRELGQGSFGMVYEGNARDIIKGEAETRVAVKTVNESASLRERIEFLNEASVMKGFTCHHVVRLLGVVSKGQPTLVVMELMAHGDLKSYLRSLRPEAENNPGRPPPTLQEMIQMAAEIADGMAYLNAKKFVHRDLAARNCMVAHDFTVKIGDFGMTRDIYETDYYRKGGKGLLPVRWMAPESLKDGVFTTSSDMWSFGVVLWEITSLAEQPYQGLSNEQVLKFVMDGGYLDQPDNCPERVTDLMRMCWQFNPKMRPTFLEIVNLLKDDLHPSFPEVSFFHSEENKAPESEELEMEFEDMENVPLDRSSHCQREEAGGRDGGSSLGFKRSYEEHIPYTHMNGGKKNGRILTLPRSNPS

[5] = biological target: T2, Serine/threonine-protein kinase TAO1 (Homo sapiens) (UniProt Q7L7X3)
T2 sequence (whole entry): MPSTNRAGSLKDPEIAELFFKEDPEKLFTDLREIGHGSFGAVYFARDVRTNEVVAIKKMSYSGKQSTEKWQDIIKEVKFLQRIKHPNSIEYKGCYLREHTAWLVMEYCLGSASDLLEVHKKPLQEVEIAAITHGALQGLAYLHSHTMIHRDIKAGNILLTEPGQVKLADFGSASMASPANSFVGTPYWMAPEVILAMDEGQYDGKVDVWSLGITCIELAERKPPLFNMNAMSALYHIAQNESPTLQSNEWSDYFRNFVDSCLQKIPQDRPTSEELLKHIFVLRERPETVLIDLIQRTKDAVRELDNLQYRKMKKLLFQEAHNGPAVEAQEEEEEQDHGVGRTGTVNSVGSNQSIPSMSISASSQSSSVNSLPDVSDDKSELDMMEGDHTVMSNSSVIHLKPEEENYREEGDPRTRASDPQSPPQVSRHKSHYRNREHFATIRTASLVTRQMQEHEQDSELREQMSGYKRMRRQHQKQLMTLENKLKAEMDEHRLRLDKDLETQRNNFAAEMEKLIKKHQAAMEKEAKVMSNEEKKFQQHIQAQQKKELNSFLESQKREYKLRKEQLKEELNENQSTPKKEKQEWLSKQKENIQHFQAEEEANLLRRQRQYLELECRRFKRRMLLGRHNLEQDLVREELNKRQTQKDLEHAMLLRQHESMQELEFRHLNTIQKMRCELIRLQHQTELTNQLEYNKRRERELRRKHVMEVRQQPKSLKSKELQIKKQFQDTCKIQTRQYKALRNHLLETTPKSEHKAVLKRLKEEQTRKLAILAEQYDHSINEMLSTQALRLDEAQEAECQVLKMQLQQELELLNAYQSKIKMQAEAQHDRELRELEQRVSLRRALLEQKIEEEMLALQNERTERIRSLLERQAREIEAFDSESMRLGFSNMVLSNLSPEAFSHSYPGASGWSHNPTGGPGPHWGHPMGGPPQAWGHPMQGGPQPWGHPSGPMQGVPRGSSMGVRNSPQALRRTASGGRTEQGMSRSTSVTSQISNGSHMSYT

[6] = biological target: Mast/stem cell growth factor receptor Kit (Homo sapiens) (UniProt P10721)
Mast/stem cell growth factor receptor Kit (Homo sapiens), sequence (P10721 whole entry): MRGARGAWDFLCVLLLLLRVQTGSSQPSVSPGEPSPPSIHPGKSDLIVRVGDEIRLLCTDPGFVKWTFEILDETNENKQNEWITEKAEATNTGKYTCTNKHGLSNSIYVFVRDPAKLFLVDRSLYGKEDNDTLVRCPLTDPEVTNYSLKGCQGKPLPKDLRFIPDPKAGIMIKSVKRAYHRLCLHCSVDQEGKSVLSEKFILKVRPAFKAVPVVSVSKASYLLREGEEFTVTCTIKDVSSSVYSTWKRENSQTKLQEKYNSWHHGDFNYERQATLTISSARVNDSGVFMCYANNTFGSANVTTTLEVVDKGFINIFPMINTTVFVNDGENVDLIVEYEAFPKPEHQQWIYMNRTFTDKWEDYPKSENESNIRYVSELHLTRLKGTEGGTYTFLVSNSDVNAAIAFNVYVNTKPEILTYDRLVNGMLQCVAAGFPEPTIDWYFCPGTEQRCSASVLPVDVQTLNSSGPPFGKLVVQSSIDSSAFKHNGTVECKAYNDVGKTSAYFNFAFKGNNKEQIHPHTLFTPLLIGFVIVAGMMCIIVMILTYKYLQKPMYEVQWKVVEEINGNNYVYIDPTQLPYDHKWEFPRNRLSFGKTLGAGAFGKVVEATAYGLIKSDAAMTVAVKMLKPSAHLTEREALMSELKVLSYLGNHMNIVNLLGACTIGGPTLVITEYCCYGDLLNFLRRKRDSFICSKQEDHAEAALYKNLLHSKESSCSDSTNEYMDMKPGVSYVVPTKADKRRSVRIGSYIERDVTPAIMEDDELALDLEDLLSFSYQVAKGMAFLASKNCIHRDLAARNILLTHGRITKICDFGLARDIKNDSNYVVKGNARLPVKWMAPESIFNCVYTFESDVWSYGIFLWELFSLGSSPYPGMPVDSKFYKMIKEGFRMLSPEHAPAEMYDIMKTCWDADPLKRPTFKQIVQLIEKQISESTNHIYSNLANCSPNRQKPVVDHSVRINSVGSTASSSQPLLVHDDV

Measured: % residual kinase activity

Mitogen-activated protein kinase 14 (Homo sapiens), sequence (Q16539 whole entry, the tested form may be a part): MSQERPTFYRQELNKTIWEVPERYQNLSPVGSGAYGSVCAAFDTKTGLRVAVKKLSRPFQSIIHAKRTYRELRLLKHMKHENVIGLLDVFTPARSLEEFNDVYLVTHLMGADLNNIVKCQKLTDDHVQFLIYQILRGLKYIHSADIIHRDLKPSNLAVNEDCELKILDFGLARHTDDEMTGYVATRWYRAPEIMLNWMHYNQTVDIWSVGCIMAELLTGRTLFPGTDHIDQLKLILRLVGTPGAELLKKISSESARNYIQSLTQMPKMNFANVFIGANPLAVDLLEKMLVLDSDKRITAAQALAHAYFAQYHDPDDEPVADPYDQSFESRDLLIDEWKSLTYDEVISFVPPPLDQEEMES

CN1CCN(c2cnc3c(C4CCN(C(=O)c5ccc(OC(F)(F)F)cc5N)CC4)ncnc3c2)CC1 [BAY-885]
inactive: [1] 113% | [2] 94% | [3] 108% | [4] 107% | [5] 100% | [6] 104%
